The values that follow come from paper PMC8521618 (ACS Medicinal Chemistry Letters, 2021).

The series can be described thus: Pharmacokinetics in mice. Conditions: for Vd: Vss, PK parameters (mouse).
Setting [1] is: CD1, mouse, in vivo, iv, 1 mg/kg, Table 3.

Bounds are passed on as bounds.

The term Vd denotes a proportionality between amount in the body and measured concentration, not a real space. Low values mean confinement near the circulation, high ones extensive tissue distribution. For orientation: half-life means how long it takes for the measured level to halve. A low value points to fast loss. With `Cc1ccc(F)c2cc(C(=O)N[C@@H]3CCC[C@H](N4CC[C@H](N(C)S(C)(=O)=O)C4)C3)[nH]c12` [Compound 32], under setting [1], the Vd turned out to be 8.13 L/kg. For the setting “CD1, mouse, in vivo, iv, 1 mg/kg, terminal t1/2, PK parameters (mouse), Table 3”, this compound gave a half-life of 3.13 h. For the setting “mouse, 10 mpk, 0.5% CMC/0.1% Tween80”, the fraction absorbed came out at 0.6. Besides, where the note is “mouse, 30 mpk”, the “estimated Fa” value is on record as 0.7 (30 mpk).

Turning to `CC(=O)N(C)C1CCN(c2cc(F)cc(NC(=O)c3cc4c(F)ccc(C)c4[nH]3)c2)C1` (stereo not drawn) [Compound 25, 4-fluoro-N-[3-fluoro-5-[3-(N-methylacetamido)pyrrolidin-1-yl]phenyl]-7-methyl-1H-indole-2-carboxamide], the Vd under setting [1] was 1.04 L/kg. The “estimated Fa” value (mouse, 50 mpk) was <0.01 (50 mpk).
